Test results: US6767895B2 (priority 2000, dated 2004)

What was measured:
[1] = in vivo
[2] = test system: mice; settings: mouse, in vivo
[3] = test system: goldfish; settings: in vivo

Substance | activity in formalin test (licking time) [1] | effects observed shortly after injection in mice [2] | effects observed shortly after injection in goldfish [3]
Gly-Xaa3-Ser-Phe-Cys-Lys-Ala-Asn-Gly-Lys-Xaa3-Cys-Ser-Xaa5-His-Ala-Asp-Cys-Cys-Asn-Cys-Cys-Leu-Ser-Gly-Ile-Cys-Lys-Xaa3-Ser-Thr-Asn-Val-Ile-Leu-Xaa3-Gly-Cys-Ser-Thr-Ser-Ser-Phe-Phe-Arg-Ile [R11.14] | active | – | –
Xaa2-Cys-Lys-Thr-Asn-Lys-Met-Ser-Cys-Ser-Leu-His-Xaa1-Xaa1-Cys-Cys-Arg-Phe-Arg-Cys-Cys-Phe-His-Gly-Lys-Cys-Gln-Thr-Ser-Val-Phe-Gly-Cys-Xaa4-Val-Asp-Xaa3 [R11.19] | – | running and jumping in short duration immediately followed by convulsion with back legs kicking, copius urination, coma and death | gasping (gills opening widely), followed by swimming backward or in circular and/or vertical motion, imbalanced swimming (body tilting), lying almost flat near the bottom and death
